Patent EP0386657A1, “Preparation for treating systemic lupus erythematosus” (MECT CORPORATION, priority 1989, dated 1990)
Read-outs that look alike come from different tables or passages of the source.

Tests used:
[1] = simple acute toxicity test, intravenous injection to mouse; format: in vivo, ddy male mouse; details: mouse, in vivo, observed 7 days, 3 mice, read-out: Final death rate (converted)
Method: (§1) Simple acute toxicity test of the agent to be tested due to intravenous injection to mouse was effected as shown below.
(§2) • (1) Agents to be tested Lithium salt, potassium salt, barium salt and magnesium salt of N-acetylneuraminic acid (all available from MECT Corporation) were used. • (2) Animal for experiment ddy male mouse Weight at initial of the test : 17.7 to 21.1 g Animal number per one level : 3 • (3) Room temperature : 23 ± 1 °C, Humidity : 55 ± 7 % • (4) Administration route : intravenous • (5) Administration method and amount thereof The above agent to be tested was dissolved with a physiological saline solution, and that which is prepared so as to become the administration amount of 0.2 ml per 20 g of mouse weight was injected into a tail vein. An administered amount was made to three levels of 500, 1000 and 2000 mg/kg. • (6) Observation of general condition and death condition Observations of the general condition and presence or absence of death were conducted from immediately after administration to after 7 days.

ddy male mouse = assay: as above; format: in vivo; details: 3 mice; for Final death rate: observed 7 days
Method: as §1, §2

passive Arthus reaction = passive Arthus reaction (bleeding of skin); format: in vivo, Male Hartley guinea pig
Method: Male Hartley guinea pig weighing 300 to 400 g was used.
According to the conventional method, Anti-OA (rabbit) was prepared. That is, by using New Zealand strain rabbits having a weight of 2.0 to 2.2 kg, 1 ml of an emulsion comprising 20 mg of OA and Freund complete adjuvant (available from DIFCO LABORATORIES) was subcutaneously injected to back side portion and active sensitization was effected for total 4 times for every two weeks.
After two weeks from the final sensitizing date, blood was gathered from common carotid artery and after separation of antiserum, it was stored under freezing at -20°C by the usage for experiment.
The passive Arthus reaction was effected according to the method of Katayama et al. [S. Katayama, et al., Arzneim.-Forsh., vol. 31, p. […] However, in order to cause sufficient reaction, change were added to a cocentration of OA solution. That is, sensitization was effected by intravenously injecting 1 ml of antiserum stock solution and 30 minutes after, the reaction was caused by intradermally injecting respective 0.05 ml of OA solutions, each containing 0.025 mg and 0.05 mg of OA respectively, to each one portion of an abdominal part and total two portions of guinea pig at which hair was cut at the day before. At this time, a physiological saline solution was intradermal injected simultaneously in the same manner as a blank. […] And, the value was calibrated by the blank to be made as the experimental results.
1, 5 or 20 mg/kg of sodium N-acetylneuraminate, or physiological saline solution (1 mg/kg) as a control was intravenously injected before 30 minutes of antigen-challenge or immediately after sensitization.
Also, Student's t-test was employed for significant test and p < 0.05 was made as statistically significant.

[2] = acute toxicity test, mouse; format: in vivo; details: in vivo, male, 14 days observed, read-out: LD₅₀
Source text: (§3) Acute toxicity tests of sodium N-acetylneuraminate against mouse, rat and guinea pig due to oral, subcutaneous injection, intraperitoneal injection, intravenous injection and inhalation were effected as shown below. • (1) Animals to be tested ICR mouse 6 weeks old SD rat 6 weeks old Hartley guinea pig 6 weeks old • (2) Chemicals concentration 20 % (w/v) dissolved in distilled water • (3) Animal number per one level Ten • (4) Terms observed 14 days • (5) Calculation method of LD₅₀ Probit method

ICR mouse = assay: acute toxicity test, mouse; format: in vivo; details: female, 14 days observed
Source text: as §3

acute toxicity test, rat = format: in vivo; details: in vivo, male, 14 days observed, read-out: LD₅₀
Source text: as §3
(§4) Inhalation is effected by exposing powder to be tested for one hour.

SD rat = assay: acute toxicity test, rat; format: in vivo
Source text: as §3, §4

[3] = acute toxicity test, guinea pig; details: in vivo, iv, 14 days observed, read-out: LD₅₀
Source text: as §3

CC(=O)N[C@H]1[C@H]([C@H](O)[C@H](O)CO)OC(O)(C(=O)[O-])C[C@@H]1O.[K+] (stereo partly shown) [Potassium N-acetylneuraminate]
mortality at 168 h ([1]; 1000 mg/kg intravenous): 100% | mortality at 168 h ([1]; 2000 mg/kg intravenous): 100% | Died number with a lapse of time (ddy male mouse; 500 mg/kg intravenous, 1 hrs): 0 | Died number with a lapse of time (ddy male mouse; 500 mg/kg intravenous, 3 hrs): 0 | Died number with a lapse of time (ddy male mouse; 500 mg/kg intravenous, 6 hrs): 0 | Died number with a lapse of time (ddy male mouse; 500 mg/kg intravenous, 24 hrs): 0 | Died number with a lapse of time (ddy male mouse; 500 mg/kg intravenous, 2 days): 0 | Died number with a lapse of time (ddy male mouse; 500 mg/kg intravenous, 3 days): 0 | Died number with a lapse of time (ddy male mouse; 500 mg/kg intravenous, 4 days): 0 | Died number with a lapse of time (ddy male mouse; 500 mg/kg intravenous, 5 days): 0 | Died number with a lapse of time (ddy male mouse; 500 mg/kg intravenous, 6 days): 0 | Died number with a lapse of time (ddy male mouse; 500 mg/kg intravenous, 7 days): 0 | Final death rate (ddy male mouse; 500 mg/kg intravenous): 0/3 | Died number with a lapse of time (ddy male mouse; 1000 mg/kg intravenous, 1 hrs): 3 | Died number with a lapse of time (ddy male mouse; 1000 mg/kg intravenous, 3 hrs): 0 | Died number with a lapse of time (ddy male mouse; 1000 mg/kg intravenous, 6 hrs): 0 | Died number with a lapse of time (ddy male mouse; 1000 mg/kg intravenous, 24 hrs): 0 | Died number with a lapse of time (ddy male mouse; 1000 mg/kg intravenous, 2 days): 0 | Died number with a lapse of time (ddy male mouse; 1000 mg/kg intravenous, 3 days): 0 | Died number with a lapse of time (ddy male mouse; 1000 mg/kg intravenous, 4 days): 0 | Died number with a lapse of time (ddy male mouse; 1000 mg/kg intravenous, 5 days): 0 | Died number with a lapse of time (ddy male mouse; 1000 mg/kg intravenous, 6 days): 0 | Died number with a lapse of time (ddy male mouse; 1000 mg/kg intravenous, 7 days): 0 | Final death rate (ddy male mouse; 1000 mg/kg intravenous): 3/3 | Died number with a lapse of time (ddy male mouse; 2000 mg/kg intravenous, 1 hrs): 3 | Died number with a lapse of time (ddy male mouse; 2000 mg/kg intravenous, 3 hrs): 0 | Died number with a lapse of time (ddy male mouse; 2000 mg/kg intravenous, 6 hrs): 0 | Died number with a lapse of time (ddy male mouse; 2000 mg/kg intravenous, 24 hrs): 0 | Died number with a lapse of time (ddy male mouse; 2000 mg/kg intravenous, 2 days): 0 | Died number with a lapse of time (ddy male mouse; 2000 mg/kg intravenous, 3 days): 0 | Died number with a lapse of time (ddy male mouse; 2000 mg/kg intravenous, 4 days): 0 | Died number with a lapse of time (ddy male mouse; 2000 mg/kg intravenous, 5 days): 0 | Died number with a lapse of time (ddy male mouse; 2000 mg/kg intravenous, 6 days): 0 | Died number with a lapse of time (ddy male mouse; 2000 mg/kg intravenous, 7 days): 0 | Final death rate (ddy male mouse; 2000 mg/kg intravenous): 3/3

CC(=O)NC1C(O)CC(O)(C(=O)O)OC1C(O)C(O)CO (stereo not shown) [Barium N-acetylneuraminate]
mortality at 168 h ([1]; 500 mg/kg intravenous): 100%

CC(=O)NC1C(O)CC(O)(C(=O)O)OC1C(O)C(O)CO (stereo not shown) [Magnesium N-acetylneuraminate]
mortality at 168 h ([1]; 1000 mg/kg intravenous): 100% | mortality at 168 h ([1]; 2000 mg/kg intravenous): 100%

CC(=O)N[C@H]1[C@H]([C@H](O)[C@H](O)CO)OC(O)(C(=O)[O-])C[C@@H]1O.[Li+] (stereo partly shown) [Lithium N-acetylneuraminate]
Died number with a lapse of time (ddy male mouse; 500 mg/kg intravenous, 1 hrs): 0 | Died number with a lapse of time (ddy male mouse; 500 mg/kg intravenous, 3 hrs): 0 | Died number with a lapse of time (ddy male mouse; 500 mg/kg intravenous, 6 hrs): 0 | Died number with a lapse of time (ddy male mouse; 500 mg/kg intravenous, 24 hrs): 0 | Died number with a lapse of time (ddy male mouse; 500 mg/kg intravenous, 2 days): 0 | Died number with a lapse of time (ddy male mouse; 500 mg/kg intravenous, 3 days): 0 | Died number with a lapse of time (ddy male mouse; 500 mg/kg intravenous, 4 days): 0 | Died number with a lapse of time (ddy male mouse; 500 mg/kg intravenous, 5 days): 0 | Died number with a lapse of time (ddy male mouse; 500 mg/kg intravenous, 6 days): 0 | Died number with a lapse of time (ddy male mouse; 500 mg/kg intravenous, 7 days): 0 | Final death rate (ddy male mouse; 500 mg/kg intravenous): 0/3 | Died number with a lapse of time (ddy male mouse; 1000 mg/kg intravenous, 1 hrs): 0 | Died number with a lapse of time (ddy male mouse; 1000 mg/kg intravenous, 3 hrs): 0 | Died number with a lapse of time (ddy male mouse; 1000 mg/kg intravenous, 6 hrs): 0 | Died number with a lapse of time (ddy male mouse; 1000 mg/kg intravenous, 24 hrs): 0 | Died number with a lapse of time (ddy male mouse; 1000 mg/kg intravenous, 2 days): 0 | Died number with a lapse of time (ddy male mouse; 1000 mg/kg intravenous, 3 days): 0 | Died number with a lapse of time (ddy male mouse; 1000 mg/kg intravenous, 4 days): 0 | Died number with a lapse of time (ddy male mouse; 1000 mg/kg intravenous, 5 days): 0 | Died number with a lapse of time (ddy male mouse; 1000 mg/kg intravenous, 6 days): 0 | Died number with a lapse of time (ddy male mouse; 1000 mg/kg intravenous, 7 days): 0 | Final death rate (ddy male mouse; 1000 mg/kg intravenous): 0/3 | Died number with a lapse of time (ddy male mouse; 2000 mg/kg intravenous, 1 hrs): 0 | Died number with a lapse of time (ddy male mouse; 2000 mg/kg intravenous, 3 hrs): 0 | Died number with a lapse of time (ddy male mouse; 2000 mg/kg intravenous, 6 hrs): 0 | Died number with a lapse of time (ddy male mouse; 2000 mg/kg intravenous, 24 hrs): 0 | Died number with a lapse of time (ddy male mouse; 2000 mg/kg intravenous, 2 days): 0 | Died number with a lapse of time (ddy male mouse; 2000 mg/kg intravenous, 3 days): 0 | Died number with a lapse of time (ddy male mouse; 2000 mg/kg intravenous, 4 days): 0 | Died number with a lapse of time (ddy male mouse; 2000 mg/kg intravenous, 5 days): 0 | Died number with a lapse of time (ddy male mouse; 2000 mg/kg intravenous, 6 days): 0 | Died number with a lapse of time (ddy male mouse; 2000 mg/kg intravenous, 7 days): 0 | Final death rate (ddy male mouse; 2000 mg/kg intravenous): 0/3

CC(=O)N[C@H]1[C@H]([C@H](O)[C@H](O)CO)OC(O)(C(=O)O)C[C@@H]1O (stereo partly shown) [N-acetylneuraminic acid]
inhibiting effect to Arthus reaction (passive Arthus reaction; general statement, in vivo): has inhibiting effect to Arthus reaction

CC(=O)N[C@H]1[C@H]([C@H](O)[C@H](O)CO)OC(O)(C(=O)[O-])C[C@@H]1O.[Na+] (stereo partly shown)
bleeding of skin (passive Arthus reaction; 20 mg/kg intravenously, guinea pig): remarkable | bleeding of skin (passive Arthus reaction; 1, 5 or 20 mg/kg intravenously, 30 minutes before antigen challenge, guinea pig, Fig. 1 and Fig. 2): depressed depending on an amount to be used | inhibiting effect on bleeding of skin (passive Arthus reaction; 24 hours after antigen challenge, guinea pig): continued even after 24 hours from antigen challenge | LD50 at 336 h ([2]; ip, i.p.): > 5000 mg/kg | LD50 at 336 h ([2]; iv, i.v.): > 5000 mg/kg | LD50 at 336 h ([2]; po, p.o.): > 5000 mg/kg | LD50 at 336 h ([2]; sc, s.c.): > 5000 mg/kg | LD₅₀ (ICR mouse; i.p.): >5,000 mg/kg | LD₅₀ (ICR mouse; i.v.): >5,000 mg/kg | LD₅₀ (ICR mouse; p.o.): >5,000 mg/kg | LD₅₀ (ICR mouse; s.c.): >5,000 mg/kg | LD50 at 336 h (acute toxicity test, rat; ip, i.p.): > 5000 mg/kg | LD50 at 336 h (acute toxicity test, rat; iv, i.v.): > 5000 mg/kg | LD50 at 336 h (acute toxicity test, rat; po, p.o.): > 5000 mg/kg | LD50 at 336 h (acute toxicity test, rat; sc, s.c.): > 5000 mg/kg | LD₅₀ (SD rat; female, i.p., 14 days observed): >5,000 mg/kg | LD₅₀ (SD rat; female, i.v., 14 days observed): >5,000 mg/kg | LD₅₀ (SD rat; female, inhalation, powder exposure for one hour): >4,000 mg/m³ | LD₅₀ (SD rat; female, p.o., 14 days observed): >5,000 mg/kg | LD₅₀ (SD rat; female, s.c., 14 days observed): >5,000 mg/kg | LD₅₀ (SD rat; male, inhalation, powder exposure for one hour): >4,000 mg/m³ | LD50 at 336 h [3]: > 5000 mg/kg
